Reference: patent publication US7772183B2 (Bristol-Myers Squibb Company, priority 2005, dated 2010)
Where two headings read alike, the source gives them in different places.

Key:
[1] = target: T1, HCV NS3/4A protease complex, BMS strain (UniProt P27958, species not given/STRAIN_BMS); assay: FRET peptide assay to monitor HCV NS3/4A proteolytic activity (BMS strain); format: biochemical, Hepatitis C virus (genotype 1a); settings: NS3/4A BMS strain; read-out: IC50 Range
T1 construct: said of H77 and J4L6S; fused on or other part: A three-lysine solubilising tail at the C-terminus of NS4A and a His tag (pET21b, Ni-NTA purification)
T1 sequence (P27958 1027-1657, change not shown, one chain of several): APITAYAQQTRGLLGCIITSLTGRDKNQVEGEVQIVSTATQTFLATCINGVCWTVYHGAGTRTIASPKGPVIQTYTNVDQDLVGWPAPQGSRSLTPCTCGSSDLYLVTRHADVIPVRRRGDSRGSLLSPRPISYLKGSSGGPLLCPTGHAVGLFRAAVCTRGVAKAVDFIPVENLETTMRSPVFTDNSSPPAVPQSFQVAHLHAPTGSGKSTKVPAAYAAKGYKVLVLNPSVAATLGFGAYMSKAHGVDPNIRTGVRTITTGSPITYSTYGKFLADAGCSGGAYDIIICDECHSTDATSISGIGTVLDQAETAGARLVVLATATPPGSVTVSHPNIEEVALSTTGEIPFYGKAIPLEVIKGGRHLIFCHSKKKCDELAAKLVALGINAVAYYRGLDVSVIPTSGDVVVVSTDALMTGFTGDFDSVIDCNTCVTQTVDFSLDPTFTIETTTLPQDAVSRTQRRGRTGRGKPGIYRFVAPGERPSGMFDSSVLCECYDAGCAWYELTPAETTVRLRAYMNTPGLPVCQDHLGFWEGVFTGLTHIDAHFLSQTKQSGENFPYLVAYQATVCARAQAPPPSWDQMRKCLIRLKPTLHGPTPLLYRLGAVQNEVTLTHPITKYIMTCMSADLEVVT
Description: HCV NS3 protease complexes, derived from the BMS strain, H77 strain or J4L6S strain, were generated, as described below. These purified recombinant proteins were generated for use in a homogeneous assay (see below) to provide an indication of how effective compounds of the present disclosure would be in inhibiting HCV NS3 proteolytic activity.
Serum from an HCV-infected patient was obtained from Dr. T. Wright, San Francisco Hospital. An engineered full-length cDNA (compliment deoxyribonucleic acid) template of the HCV genome (BMS strain) was constructed from DNA fragments obtained by reverse transcription-PCR (RT-PCR) of serum RNA (ribonucleic acid) and using primers selected on the basis of homology between other genotype 1a strains. From the determination of the entire genome sequence, a genotype 1a was assigned to the HCV isolate according to the classification of Simmonds et al. (See P Simmonds, K A Rose, S Graham, S W Chan, F McOmish, B C Dow, E A Follett, P L Yap and H Marsden, J. Clin. Microbiol., 31(6), 1493-1503 (1993)). […] The infectious clones, H77 (1a genotype) and J4L6S (1b genotype) were obtained from R. Purcell (NIH) and the sequences are published in Genbank (AAB67036, see Yanagi, M., Purcell, R. H., Emerson, S. U. and Bukh, J. Proc. Natl. Acad. Sci. U.S.A. 94(16), 8738-8743 (1997); AF054247, see Yanagi, M., St Claire, M., Shapiro, M., Emerson, S. U., Purcell, R. H. and Bukh, J, Virology 244 (1), 161-172. (1998)).
The H77 and J4L6S strains were used for production of recombinant NS3/4A protease complexes. DNA encoding the recombinant HCV NS3/4A protease complex (amino acids 1027 to 1711) for these strains were manipulated as described by P. Gallinari et al. (see Gallinari P, Paolini C, Brennan D, Nardi C, Steinkuhler C, De Francesco R. Biochemistry. 38(17):5620-32, (1999)). Briefly, a three-lysine solubilizing tail was added at the 3′-end of the NS4A coding region. The cysteine in the P1 position of the NS4A-NS4B cleavage site (amino acid 1711) was changed to a glycine to avoid the proteolytic cleavage of the lysine tag. Furthermore, a cysteine to serine mutation was introduced by PCR at amino acid position 1454 to prevent the autolytic cleavage in the NS3 helicase domain. The variant DNA fragment was cloned in the pET21b bacterial expression vector (Novagen) and the NS3/4A complex was expressed in Escherichia coli strain BL21 (DE3) (Invitrogen) following the protocol described by P. Gallinari et al. (see Gallinari P, Brennan D, Nardi C, Brunetti M, Tomei L, Steinkuhler C, De Francesco R., J Virol. 72(8):6758-69 (1998)) with modifications. Briefly, the NS3/4A protease complex expression was induced with 0.5 mM Isopropyl β-D-1-thiogalactopyranoside (IPTG) for 22 hours (h) at 20° C. A typical fermentation (1 Liter (L)) yielded approximately 10 grams (g) of wet cell paste. The cells were resuspended in lysis buffer (10 mL/g) consisting of 25 mM N-(2-Hydroxyethyl)Piperazine-N′-(2-Ethane Sulfonic acid) (HEPES), pH 7.5, 20% glycerol, 500 mM Sodium Chloride (NaCl), 0.5% Triton X-100, 1 microgram/milliliter (“μg/mL”) lysozyme, 5 mM Magnesium Chloride (MgCl2), 1 μg/ml Dnasel, 5 mM β-Mercaptoethanol (βME), Protease inhibitor-Ethylenediamine Tetraacetic acid (EDTA) free (Roche), homogenized and incubated for 20 minutes (min) at 4° C. The homogenate was sonicated and clarified by ultra-centrifugation at 235000 g for 1 h at 4° C. Imidazole was added to the supernatant to a final concentration of 15 mM and the pH adjusted to 8.0. The crude protein extract was loaded on a Nickel-Nitrilotriacetic acid (Ni-NTA) column pre-equilibrated with buffer B (25 mM HEPES, pH 8.0, 20% glycerol, 500 mM NaCl, 0.5% Triton X-100, 15 mM imidazole, 5 mM βME). The sample was loaded at a flow rate of 1 mL/min. The column was washed with 15 column volumes of buffer C (same as buffer B except with 0.2% Triton X-100). The protein was eluted with 5 column volumes of buffer D (same as buffer C except with 200 mM Imidazole). […]

[2] = test system: HCV replicon in HUH-7 cells; assay: HCV replicon FRET assay; format: cell-based, Hepatitis C virus (strain 1b); settings: Hepatitis C virus
Description: An HCV replicon whole cell system was established as described by Lohmann V, Komer F, Koch J, Herian U, Theilmann L, Bartenschlager R., Science 285(5424):110-3 (1999). This system enabled us to evaluate the effects of our HCV Protease compounds on HCV RNA replication. Briefly, using the HCV strain 1b sequence described in the Lohmann paper (Assession number: AJ238799), an HCV cDNA was synthesized by Operon Technologies, Inc. (Alameda, Calif.), and the full-length replicon was then assembled in plasmid pGem9zf(+) (Promega, Madison, Wis.) using standard molecular biology techniques. The replicon consists of (i) the HCV 5′ UTR fused to the first 12 amino acids of the capsid protein, (ii) the neomycin phosphotransferase gene (neo), (iii) the IRES from encephalomyocarditis virus (EMCV), and (iv) HCV NS3 to NS5B genes and the HCV 3′ UTR. Plasmid DNAs were linearized with Scal and RNA transcripts were synthesized in vitro using the T7 MegaScript transcription kit (Ambion, Austin, Tex.) according to manufacturer's directions. In vitro transcripts of the cDNA were transfected into the human hepatoma cell line, HUH-7. […] Resulting cell lines were characterized for positive and negative strand RNA production and protein production over time.
The HCV replicon FRET assay was developed to monitor the inhibitory effects of compounds described in the disclosure on HCV viral replication. HUH-7 cells, constitutively expressing the HCV replicon, were grown in Dulbecco's Modified Eagle Media (DMEM) (Gibco-BRL) containing 10% Fetal calf serum (FCS) (Sigma) and 1 mg/ml G418 (Gibco-BRL). Cells were seeded the night before (1.5×10^4 cells/well) in 96-well tissue-culture sterile plates. Compound and no compound controls were prepared in DMEM containing 4% FCS, 1:100 Penicillin/Streptomysin (Gibco-BRL), 1:100 L-glutamine and 5% DMSO in the dilution plate (0.5% DMSO final concentration in the assay). Compound/DMSO mixes were added to the cells and incubated for 4 days at 37° C. After 4 days, cells were first assessed for cytotoxicity using alamar Blue (Trek Diagnotstic Systems) for a CC50 reading. The toxicity of compound (CC50) was determined by adding 1/10th volume of alamar Blue to the media incubating the cells. After 4 hours, the fluorescence signal from each well was read, with an excitation wavelength at 530 nm and an emission wavelength of 580 nm, using the Cytofluor Series 4000 (Perspective Biosystems). Plates were then rinsed thoroughly with Phosphate-Buffered Saline (PBS) (3 times 150 μl). The cells were lysed with 25 μl of a lysis assay reagent containing an HCV protease substrate (5× cell Luciferase cell culture lysis reagent (Promega #E153A) diluted to 1× with distilled water, NaCl added to 150 mM final, the FRET peptide substrate (as described for the enzyme assay above) diluted to 10 μM final from a 2 mM stock in 100% DMSO. […]. The plate was then placed into the Cytofluor 4000 instrument which had been set to 340 nm excitation/490 nm emission, automatic mode for 21 cycles and the plate read in a kinetic mode. EC50 determinations were carried out as described for the IC50 determinations.

[3] = Huh-7, HCV replicon, for compounds tested, read-out: EC50 Range

| Structure (SMILES) | IC50 [1] [nM] | EC50 [2, 3] [nM] | melting point [°C] | EC50 ([2]; Huh-7, read-out: EC50 Range) [nM] |
| --- | --- | --- | --- | --- |
| CC(C)(C)OC(=O)N[C@H]1CCCOC/C=C\[C@@H]2C[C@@]2(C(=O)NS(=O)(=O)C2CC2)NC(=O)[C@@H]2C[C@@H](OC(=O)NC3CCCCC3)CN2C1=O [Compound 36, 18-(cyclohexylaminocarbonyloxy)-14-tert-butoxycarbonylamino-4-cyclopropylsulfonylaminocarbonyl-2,15-dioxo-3,16-diaza-10-oxatricyclo-[14.3.0.0^4,6]-nonadec-7-ene] | 100 to 1000 | > 1000 | 156 to 158 | – |
| CC(C)(C)OC(=O)N[C@H]1CCCOC/C=C\[C@@H]2C[C@@]2(C(=O)NS(=O)(=O)C2CC2)NC(=O)[C@@H]2C[C@@H](OC(=O)c3ccccc3)CN2C1=O [Compound 1, 18-benzoyloxy-14-tert-butoxycarbonylamino-4-cyclopropylsulfonylaminocarbonyl-2,15-dioxo-3,16-diaza-10-oxatricyclo[14.3.0.0^4,6]nonadec-7-ene] | < 100 | 100 to 1000 | 153 to 155 | – |
| COC(=O)c1ccccc1NC(=O)O[C@@H]1C[C@H]2C(=O)N[C@]3(C(=O)NS(=O)(=O)C4CC4)C[C@H]3/C=C\COCCC[C@H](NC(=O)OC(C)(C)C)C(=O)N2C1 [Compound 38, 18-(2-carbomethoxyphenylaminocarbonyloxy)-14-tert-butoxycarbonylamino-4-cyclopropylsulfonylaminocarbonyl-2,15-dioxo-3,16-diaza-10-oxatricyclo-[14.3.0.0^4,6]-nonadec-7-ene] | < 100 | – | 147 to 149 | 100 to 1000 |
| CC(C)(C)OC(=O)N[C@H]1CCCOC/C=C\[C@@H]2C[C@@]2(C(=O)NS(=O)(=O)C2CC2)NC(=O)[C@@H]2C[C@@H](OC(=O)NCC3CCCCC3)CN2C1=O [Compound 37, 18-cyclohexylmethylaminocarbonyloxyl-14-tert-butoxycarbonylamino-4-cyclopropylsulfonylaminocarbonyl-2,15-dioxo-3,16-diaza-10-oxatricyclo-[14.3.0.0^4,6]-nonadec-7-ene] | 100 to 1000 | > 1000 | 142 to 144 | – |
| CC(C)(C)OC(=O)N[C@H]1COCCC/C=C\[C@@H]2C[C@@]2(C(=O)NS(=O)(=O)C2CC2)NC(=O)[C@@H]2C[C@@H](OC(=O)c3ccc(Oc4ccccc4)cc3)CN2C1=O [Compound 14, 18-(4-phenoxybenzoyloxy)-14-tert-butoxycarbonylamino-4-cyclopropylsulfonylaminocarbonyl-2,15-dioxo-3,16-diaza-12-oxatricyclo-[14.3.0.0^4,6]-nonadec-7-ene] | 100 to 1000 | 100 to 1000 | 207 to 209 | – |
| CC(C)(C)OC(=O)N[C@H]1CCCOC/C=C\[C@@H]2C[C@@]2(C(=O)NS(=O)(=O)C2CC2)NC(=O)[C@@H]2C[C@@H](OC(=O)c3ccc(-c4ccccc4)cc3)CN2C1=O [Compound 11, 18-(4-biphenylcarbonyloxy)-14-tert-butoxycarbonylamino-4-cyclopropylsulfonylaminocarbonyl-2,15-dioxo-3,16-diaza-10-oxatricyclo-[14.3.0.0^4,6]-nonadec-7-ene] | < 100 | < 100 | 160 to 162 | – |
| CC(C)(C)OC(=O)N[C@H]1COCCC/C=C\[C@@H]2C[C@@]2(C(=O)NS(=O)(=O)C2CC2)NC(=O)[C@@H]2C[C@@H](OC(=O)Nc3ccccc3Oc3ccccc3)CN2C1=O [Compound 40, 18-(2-phenoxyphenylaminocarbonyloxy)-14-tert-butoxycarbonylamino-4-cyclopropylsulfonylaminocarbonyl-2,15-dioxo-3,16-diaza-12-oxatricyclo-[14.3.0.0^4,6]-nonadec-7-ene] | 100 to 1000 | 100 to 1000 | 151 to 153 | – |
| CC(C)(C)OC(=O)N[C@H]1CCCCC/C=C\[C@@H]2C[C@@]2(C(=O)NS(=O)(=O)C2CC2)NC(=O)[C@@H]2C[C@@H](OC(=O)c3ccccc3)CN2C1=O [Compound 15, 18-benzoyloxy-14-tert-butoxycarbonylamino-4-cyclopropylsulfonylaminocarbonyl-2,15-dioxo-3,16-diazatricyclo-[14.3.0.0^4,6]-nonadec-7-ene] | < 100 | < 100 | 140 to 142 | – |
| CC(C)(C)OC(=O)N[C@H]1COCCC/C=C\[C@@H]2C[C@@]2(C(=O)NS(=O)(=O)C2CC2)NC(=O)[C@@H]2C[C@@H](OC(=O)Nc3ccccc3-c3ccccc3)CN2C1=O [Compound 42, 18-(2-biphenylaminocarbonyloxy)-14-tert-butoxycarbonylamino-4-cyclopropylsulfonylaminocarbonyl-2,15-dioxo-3,16-diaza-12-oxatricyclo-[14.3.0.0^4,6]-nonadec-7-ene] | < 100 | 100 to 1000 | 147 to 149 | – |
